Data on one substance can be found in US10188674B2, “Parenteral formulations for administering macrolide antibiotics” (Cempra Pharmaceuticals, Inc., priority 2012, dated 2019).

Data set [1] in a line: Dynamic Precipitation Model (absorbance at 500 nm on infusion into blood surrogate). It is filed as physicochemical. How it is done: Dynamic Precipitation Model. The dynamic precipitation apparatus is shown in FIG. 1, and is also described in Johnson et al., (2003). The apparatus includes a predetermined distance, illustratively a 15 cm distance, between the tip of the injection needle and the UV flow cell, and three main components to simulate blood flow and different infusion rates of drug. Illustratively, a Cole-Palmer-Masterflex® 7520-00 peristaltic pump is used to direct the flow of blood surrogate at 5 mL/min. Illustratively, a Harvard Apparatus Precision Syringe Pump 22 is used to infuse drug formulations into the system at various injection rates. Illustratively, a Cary UV-50 Bio Spectrophotometer with a 1.00 cm flow cell is used to monitor absorbance as a measure of precipitation in the formulation-blood surrogate system. Each sample is prepared by dissolving test compound and formulation agents into water or vehicle, and adjusting the pH with either 1 M HCl or 1 M NaOH, as appropriate to the indicated final concentration of test compound. Lactic, citric, and tartaric acid formulation agent stock solutions are made by dissolving the predetermined weight of solid or liquid into water and adjusting pH with either 1 M HCl or 1 M NaOH. The blood surrogate (Isotonic Sorensen's Phosphate Buffer, 0.067 M, pH 7.4) is pumped from a reservoir through Tygon® tubing (R-6306) fitted with 2 IV-set Y-injection sites that pass into the flow cell and terminate in a waste container. […]-35 flow meter, along with a timer and graduated cylinder, is used to measure the rate of surrogate blood flow through the system. Illustratively, flow is 5 mL/min. The test compound formulations are infused at different rates through the downstream second Y-injection site into the flow of the blood surrogate entering into the flow cell. A 0.001 M HCl solution is injected into the first Y-injection site following each infusion of test compound to flush the downstream tubing and flow cell. All injections are performed at 25° C. The spectrophotometer software (Cary UVWin) is set to read a constant absorbance, illustratively 500 nm, versus time. Samples are made with buffer and drug concentrations as described. After the flow rate is confirmed at 5 mL/min, the spectrophotometer is set to record absorbance at 500 nm for 5-10 minutes, and injections are performed at different rates as specified. To prevent any residual precipitation build up in the tubing or flow cell, a flush of pH 3 HCl is performed between injections. The flow cell is optionally visually inspected between runs for the presence of precipitation. Static precipitation measurements are also optionally performed by a two-fold serial dilution of test compound formulation in blood surrogate using a laser pointer as a Tyndall beam to determine the presence of particulates. […] An absorbance at or above 0.05 is considered to be the threshold level for assessing precipitation having phlebitic potential.

Data set [2] concerns New Zealand White female rabbits. Briefly: Pain Tolerance Evaluation, Single Dose Rabbit Ear Vein Model Study. It is filed as in vivo. The conditions noted are these: single dose infusions in marginal ear vein, observed during and 30 minutes post infusion. How it is done: Pain Tolerance Evaluation Following Intravenous Infusion in Rabbit. Single Dose Rabbit Ear Vein Model Study. New Zealand White female rabbits weighing 2.5-3.2 kg are evaluated for pain, ear inflammation and phlebitis after intravenous infusion of test compound. Commercial azithromycin citrate is used as a positive control.
CEM-101 lyo (SOL (250.0 mg), mannitol, USP (250.0 mg), L(+)-tartaric acid, USP (29.0 mg), sodium hydroxide, NF (for pH adjustment to pH 4.2)) is reconstituted in a vehicle or formulation as described herein. The placebo is the same formulation without SOL. The reconstituted SOL or placebo is dissolved in an appropriate vehicles, such as 0.45% saline, 0.5% lactic acid at pH 4 in 0.45% saline, 0.5% lactic acid with 10 mM tartaric acid at pH 4 in 0.45% saline. CEM-101 lyo is dissolved in the appropriate vehicle at concentrations of 2 mg/mL or 3 mg/mL. The CEM-101 placebo formulation is dissolved in 0.45% saline. All rabbits are weighed to calculate dosing volumes.
Azithromycin lyophilized vials are commercially available azithromycin citrate for injection (ZITHROMAX IV) in lyophilized form in a 10-mL vial equivalent to 500 mg of azithromycin for intravenous administration. […]
Animals were observed during and post (30 minutes) each infusion, and reactions were scored according to a modified Draize Score and recorded. […]

As to “Azithromycin Citrate [Azitromycin citrate, reference compound]”, the Absorbance entry in data set [1] (2 mg/mL, 4 mL/min, 0.45% NaCl) is on record as “++++ ((++++) = BQL of <0.003)”. Further, in data set [1] (citrate buffered solution in 0.45% saline at 2 mg/mL and 4 mL/min), the precipitation result was “does not exhibit precipitation and BQL”. Besides, the “reactions upon test article administration” value in data set [2] is “strong movement of ear, head and body with vocalization”.
